Experimental data reported in ChEMBL document CHEMBL4196087 (Eur J Med Chem, 2018).
≈ marks a conversion by molar mass, not a printed value.

What was measured:
Assay type in all cases: functional
Bacillus subtilis [1] = experiment: Antibacterial activity against Bacillus subtilis at 37 degC measured after 24 hrs by agar disc diffusion method
Pseudomonas aeruginosa [2] = experiment: Antibacterial activity against Pseudomonas aeruginosa at 37 degC measured after 24 hrs by agar disc diffusion method
MDA-MB-468 = experiment: Growth inhibition of human MDA-MB-468 cells at 10^-5 M incubated for 48 hrs by sulforhodamine B assay relative to control; details: MDA-MB-468, 48 h, read-out: GI
T47D = experiment: Growth inhibition of human T47D cells at 10^-5 M incubated for 48 hrs by sulforhodamine B assay relative to control; details: read-out: GI
SF-539 = experiment: Growth inhibition of human SF539 cells at 10^-5 M incubated for 48 hrs by sulforhodamine B assay relative to control; details: SF-539, 48 h, read-out: GI
SK-MEL-5 = experiment: Growth inhibition of human SK-MEL-5 cells at 10^-5 M incubated for 48 hrs by sulforhodamine B assay relative to control; details: SK-MEL-5, 48 h, read-out: GI
A498 = experiment: Growth inhibition of human A498 cells at 10^-5 M incubated for 48 hrs by sulforhodamine B assay relative to control; details: A498, 48 h, read-out: GI
HL-60(TB) = experiment: Growth inhibition of human HL-60(TB) cells at 10^-5 M incubated for 48 hrs by sulforhodamine B assay relative to control; details: HL-60, 48 h, read-out: GI
PC-3 = experiment: Growth inhibition of human PC3 cells at 10^-5 M incubated for 48 hrs by sulforhodamine B assay relative to control; details: PC-3, 48 h, read-out: GI
HOP-62 = experiment: Growth inhibition of human HOP62 cells at 10^-5 M incubated for 48 hrs by sulforhodamine B assay relative to control; details: HOP-62, 48 h, read-out: GI
MDA-MB-231 = experiment: Growth inhibition of human MDA-MB-231 cells at 10^-5 M incubated for 48 hrs by sulforhodamine B assay relative to control; details: MDA-MB-231, 48 h, read-out: GI
UO-31 = experiment: Growth inhibition of human UO31 cells at 10^-5 M incubated for 48 hrs by sulforhodamine B assay relative to control; details: UO-31, 48 h, read-out: GI
Staphylococcus aureus = experiment: Antibacterial activity against Staphylococcus aureus at 37 degC measured after 24 hrs by agar disc diffusion method
NCI-H226 = experiment: Growth inhibition of human NCI-H226 cells at 10^-5 M incubated for 48 hrs by sulforhodamine B assay relative to control; details: NCI-H226, 48 h, read-out: GI
IGROV-1 = experiment: Growth inhibition of human IGROV1 cells at 10^-5 M incubated for 48 hrs by sulforhodamine B assay relative to control; details: IGROV-1, 48 h, read-out: GI
MCF7 = experiment: Growth inhibition of human MCF7 cells at 10^-5 M incubated for 48 hrs by sulforhodamine B assay relative to control; details: MCF7, 48 h, read-out: GI
K562 = experiment: Growth inhibition of human K562 cells at 10^-5 M incubated for 48 hrs by sulforhodamine B assay relative to control; details: K562, 48 h, read-out: GI
Escherichia coli = experiment: Antibacterial activity against Escherichia coli at 37 degC measured after 24 hrs by agar disc diffusion method
SNB-75 = experiment: Growth inhibition of human SNB75 cells at 10^-5 M incubated for 48 hrs by sulforhodamine B assay relative to control; details: SNB-75, 48 h, read-out: GI
Bacillus subtilis [3] = experiment: Antibacterial activity against Bacillus subtilis at 37 degC measured after 24 hrs by CLSI M7-A4 protocol based method
LOX IMVI = experiment: Growth inhibition of human LOXIMVI cells at 10^-5 M incubated for 48 hrs by sulforhodamine B assay relative to control; details: read-out: GI
MOLT-4 = experiment: Growth inhibition of human MOLT4 cells at 10^-5 M incubated for 48 hrs by sulforhodamine B assay relative to control; details: MOLT-4, 48 h, read-out: GI
RPMI-8226 = experiment: Growth inhibition of human RPMI8226 cells at 10^-5 M incubated for 48 hrs by sulforhodamine B assay relative to control; details: RPMI-8226, 48 h, read-out: GI
HOP-92 = experiment: Growth inhibition of human HOP92 cells at 10^-5 M incubated for 48 hrs by sulforhodamine B assay relative to control; details: HOP-92, 48 h, read-out: GI
CCRF-CEM = experiment: Growth inhibition of human CCRF-CEM cells at 10^-5 M incubated for 48 hrs by sulforhodamine B assay relative to control; details: read-out: GI
Pseudomonas aeruginosa [4] = experiment: Antibacterial activity against Pseudomonas aeruginosa at 37 degC measured after 24 hrs by CLSI M7-A4 protocol based method
SK-OV-3 = experiment: Growth inhibition of human SKOV3 cells at 10^-5 M incubated for 48 hrs by sulforhodamine B assay relative to control; details: SK-OV-3, 48 h, read-out: GI

Compound	diameter of the inhibition zone (DIZ) (Bacillus subtilis [1])	diameter of the inhibition zone (DIZ) (Pseudomonas aeruginosa [2])	inhibition of growth at 10 µM (T47D)	inhibition of growth at 10 µM (PC-3)	inhibition of growth at 10 µM (HOP-62)	inhibition of growth at 10 µM (UO-31)	diameter of the inhibition zone (DIZ) (Staphylococcus aureus)	diameter of the inhibition zone (DIZ) (Escherichia coli)	MIC (Bacillus subtilis [3])	inhibition of growth at 10 µM (LOX IMVI)	inhibition of growth at 10 µM (MOLT-4)	inhibition of growth at 10 µM (HOP-92)	MIC (Pseudomonas aeruginosa [4])	also measured
O=C(CN1CCN(c2cc3c(cc2F)c(=O)c(C(=O)O)cn3C2CC2)CC1)N/N=C/c1ccc(Cl)cc1	30 mm	30 mm	< 20%	< 20%	< 20%	< 20%	28 mm	28 mm	62 µg/mL (≈ 118 µM)	< 20%	< 20%	< 20%	60 µg/mL (≈ 114 µM)	inhibition of growth at 10 µM (MDA-MB-468): < 20%; inhibition of growth at 10 µM (SF-539): < 20%; inhibition of growth at 10 µM (SK-MEL-5): < 20%; inhibition of growth at 10 µM (A498): 26.7%; inhibition of growth at 10 µM (HL-60(TB)): < 20%; inhibition of growth at 10 µM (MDA-MB-231): < 20%; inhibition of growth at 10 µM (NCI-H226): < 20%; inhibition of growth at 10 µM (IGROV-1): < 20%; inhibition of growth at 10 µM (MCF7): < 20%; inhibition of growth at 10 µM (K562): < 20%; inhibition of growth at 10 µM (SNB-75): < 20%; inhibition of growth at 10 µM (RPMI-8226): < 20%; inhibition of growth at 10 µM (CCRF-CEM): < 20%
O=C(CN1CCN(c2cc3c(cc2F)c(=O)c(C(=O)O)cn3C2CC2)CC1)N/N=C/c1ccncc1	35 mm	30 mm	–	–	–	–	30 mm	28 mm	62 µg/mL (≈ 126 µM)	–	–	–	44 µg/mL (≈ 89.3 µM)	–
O=C(CN1CCN(c2cc3c(cc2F)c(=O)c(C(=O)O)cn3C2CC2)CC1)N/N=C/c1cccnc1	32 mm	31 mm	–	–	–	–	30 mm	29 mm	60 µg/mL (≈ 122 µM)	–	–	–	58 µg/mL (≈ 118 µM)	–
COc1ccc(/C=N/NC(=O)CN2CCN(c3cc4c(cc3F)c(=O)c(C(=O)O)cn4C3CC3)CC2)cc1	26 mm	27 mm	< 20%	< 20%	< 20%	< 20%	25 mm	24 mm	–	23.2%	< 20%	< 20%	–	inhibition of growth at 10 µM (MDA-MB-468): < 20%; inhibition of growth at 10 µM (SF-539): < 20%; inhibition of growth at 10 µM (SK-MEL-5): < 20%; inhibition of growth at 10 µM (A498): < 20%; inhibition of growth at 10 µM (HL-60(TB)): < 20%; inhibition of growth at 10 µM (MDA-MB-231): < 20%; inhibition of growth at 10 µM (NCI-H226): < 20%; inhibition of growth at 10 µM (IGROV-1): < 20%; inhibition of growth at 10 µM (MCF7): < 20%; inhibition of growth at 10 µM (K562): < 20%; inhibition of growth at 10 µM (SNB-75): < 20%; inhibition of growth at 10 µM (RPMI-8226): < 20%; inhibition of growth at 10 µM (CCRF-CEM): < 20%
COc1cc(/C=N/NC(=O)CN2CCN(c3cc4c(cc3F)c(=O)c(C(=O)O)cn4C3CC3)CC2)ccc1O	20 mm	18 mm	–	–	–	–	16 mm	18 mm	–	–	–	–	–	–
O=C(CSc1nnc(CN2CCN(c3cc4c(cc3F)c(=O)c(C(=O)O)cn4C3CC3)CC2)o1)c1ccc(Cl)cc1	–	–	23%	< 20%	23.5%	< 20%	–	–	–	< 20%	< 20%	27.2%	–	inhibition of growth at 10 µM (SK-OV-3): 20.9%
NNC(=O)CN1CCN(c2cc3c(cc2F)c(=O)c(C(=O)O)cn3C2CC2)CC1	33 mm	30 mm	< 20%	< 20%	< 20%	< 20%	28 mm	28 mm	–	< 20%	< 20%	< 20%	–	inhibition of growth at 10 µM (MDA-MB-468): < 20%; inhibition of growth at 10 µM (SF-539): < 20%; inhibition of growth at 10 µM (SK-MEL-5): < 20%; inhibition of growth at 10 µM (A498): < 20%; inhibition of growth at 10 µM (HL-60(TB)): 20.5%; inhibition of growth at 10 µM (MDA-MB-231): < 20%; inhibition of growth at 10 µM (NCI-H226): < 20%; inhibition of growth at 10 µM (IGROV-1): < 20%; inhibition of growth at 10 µM (MCF7): < 20%; inhibition of growth at 10 µM (K562): < 20%; inhibition of growth at 10 µM (SNB-75): < 20%; inhibition of growth at 10 µM (RPMI-8226): < 20%; inhibition of growth at 10 µM (CCRF-CEM): < 20%
O=C(CN1CCN(c2cc3c(cc2F)c(=O)c(C(=O)O)cn3C2CC2)CC1)N/N=C/c1cccs1	28 mm	26 mm	< 20%	< 20%	< 20%	< 20%	23 mm	24 mm	82 µg/mL (≈ 165 µM)	27.7%	< 20%	< 20%	72 µg/mL (≈ 145 µM)	inhibition of growth at 10 µM (MDA-MB-468): < 20%; inhibition of growth at 10 µM (SF-539): < 20%; inhibition of growth at 10 µM (SK-MEL-5): < 20%; inhibition of growth at 10 µM (A498): 23.1%; inhibition of growth at 10 µM (HL-60(TB)): < 20%; inhibition of growth at 10 µM (MDA-MB-231): < 20%; inhibition of growth at 10 µM (NCI-H226): < 20%; inhibition of growth at 10 µM (IGROV-1): < 20%; inhibition of growth at 10 µM (MCF7): < 20%; inhibition of growth at 10 µM (K562): < 20%; inhibition of growth at 10 µM (SNB-75): < 20%; inhibition of growth at 10 µM (RPMI-8226): < 20%; inhibition of growth at 10 µM (CCRF-CEM): < 20%
COc1cc(/C=N/NC(=O)CN2CCN(c3cc4c(cc3F)c(=O)c(C(=O)O)cn4C3CC3)CC2)cc(OC)c1OC	23 mm	23 mm	–	–	–	–	21 mm	20 mm	–	–	–	–	–	–
O=C(O)c1cn(C2CC2)c2cc(N3CCNCC3)c(F)cc2c1=O [CIPROFLOXACIN]	38 mm	36 mm	–	–	–	–	31 mm	33 mm	–	–	–	–	–	–
O=C(CN1CCN(c2cc3c(cc2F)c(=O)c(C(=O)O)cn3C2CC2)CC1)N/N=C/c1ccco1	31 mm	30 mm	–	–	–	–	26 mm	28 mm	70 µg/mL (≈ 145 µM)	–	–	–	66 µg/mL (≈ 137 µM)	–
O=C(CSc1nnc(CN2CCN(c3cc4c(cc3F)c(=O)c(C(=O)O)cn4C3CC3)CC2)o1)c1ccccc1	–	–	< 20%	23.9%	< 20%	20.3%	–	–	–	25.3%	< 20%	< 20%	–	inhibition of growth at 10 µM (SK-OV-3): < 20%
O=C(CN1CCN(c2cc3c(cc2F)c(=O)c(C(=O)O)cn3C2CC2)CC1)N/N=C/c1ccc(F)cc1	19 mm	19 mm	–	–	–	–	18 mm	17 mm	–	–	–	–	–	–
O=C(CN1CCN(c2cc3c(cc2F)c(=O)c(C(=O)O)cn3C2CC2)CC1)N/N=C/c1ccccc1Cl	22 mm	22 mm	–	–	–	–	20 mm	19 mm	–	–	–	–	–	–
O=C(CN1CCN(c2cc3c(cc2F)c(=O)c(C(=O)O)cn3C2CC2)CC1)N/N=C/c1ccccc1F	29 mm	29 mm	–	–	–	–	26 mm	26 mm	–	–	–	–	–	–
